For one compound, IC50 results are on record in patent publication US10906905B2, “Five-membered heteroaryl ring bridged ring derivative, preparation method therefor and medical use thereof” (Jiangsu Hengrui Medicine Co., Ltd., priority 2016, dated 2021).

One assay addresses p38α kinase (Homo sapiens (Human), UniProt Q16539). Description: Inhibition of p38α kinase activity (p38α kinase assay kit, ADP-Glo). Conditions: ATP 50 μM; read-out: IC50 of inhibition effect on p38α kinase activity. In kind it is biochemical. How it is done: The inhibition of p38α kinase activity in vitro was determined by the following method.
The inhibition effect of the compounds of the present invention on p38a kinase activity was determined by the following experimental method:
p38α kinase assay kit (V9591, Promega) was used to assay enzyme activity. 2 μl of enzyme solution (the final concentration of enzyme in the reaction system was 0.5 ng/μL) formulated with reaction buffer (40 mM Tris pH 7.5, 20 mM MgCl2, 0.1 mg/ml BSA), 1 μl of a 3-fold gradient dilution of the compounds dissolved in 5% DMSO, and 2 μl of a mixed solution of ATP and p38 substrate peptide (the final concentration of ATP was 50 μM, and the final concentration of substrate was 0.2 μg/μL) were added successively to a 384-well plate (4514, Corning). After reaction at 27° C. for 2.5 hours, 5 μl of ADP-Glo solution in the kit was added to each well, then the plate was placed at 27° C. for 40 minutes. 10 μl of kinase assay reagent was then added to each well, then the plate was placed at 27° C. for 30 minutes. The chemiluminescence signal values were measured with a Victor 3 (PerkinElmer) multi-function microplate reader. The IC50 values of the compounds on enzyme inhibition were calculated using Graphpad prism software based on each concentration of the compound and the corresponding signal value thereof.

A further assay concerns the target TGFβRI kinase ALK5 (Homo sapiens (Human), UniProt P36897). The assay can be described thus: Inhibition of TGFβRI kinase ALK5 activity (TGFβRI kinase assay kit, ADP-Glo). In kind it is biochemical. Conditions: ATP 50 μM; read-out: IC50 of inhibition effect on TGFβRI kinase ALK5 activity. The procedure, abridged: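 Kinase reaction: 2 ng/μL enzyme in Tris pH 7.5, MgCl2, BSA buffer with 50 μM ATP and 0.2 μg/μL substrate peptide, 2.5 h at 27 °C. ADP formation read by ADP-Glo luminescence over 3-fold compound dilutions; IC50 calculated from signal versus concentration.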
In general terms: In ADP-Glo the light output rises with the ADP produced.

In the next assay the test system is NIH3T3 cell. Description: Inhibition of NIH3T3 cell proliferation (CellTiter-Glo). The assay is classed as cell-based. The settings on record: Mus musculus, 72 hours, 0.5% FBS. How it is done: The inhibition effect of the compounds of the present invention on NIH3T3 cell proliferation was determined by the following in vitro test.
The inhibition effect of the compounds of the present invention on NIH3T3 cell proliferation was determined by the following experimental method:
On a 96-well white plate with transparent bottom (3903, Corning), 100 μL of NIH3T3 cell (GNM6, Cell Bank of Typical Culture Collection Committee of Chinese Academy of Sciences) was seeded in a DMEM medium containing 10% FBS in each well. The seeding density is 2000 cells/well. The cells were incubated overnight at 37° C., 5% CO2. After overnight incubation, each well was replaced with 90 μL of DMEM medium containing 0.5% FBS. 10 μl of a 3-fold gradient dilution of the compounds with DMEM medium containing 0.5% FBS was then added, and the plate was incubated for 72 hours in a cell incubator at 37° C., 5% CO2. Finally, 50 μL of CellTiter-Glo (G7573, Promega) was added to each well. After incubation for 10 minutes at room temperature, the chemiluminescence signal values were measured with a Victor 3 microplate reader (PerkinElmer). The IC50 values of the compounds were calculated using Graphpad Prism software based on each concentration of the compound and the corresponding signal value thereof.
(ATP-based viability assays read luminescence as a measure of living cells.)

Assay [1] deals with recombinant human VEGFR2 enzyme (Homo sapiens (Human), UniProt P35968). The assay can be described thus: Inhibition of VEGFR2 kinase activity (Z'-LYTE Kinase Assay Kit). The assay is classed as biochemical. Conditions: ATP 50 μM; read-out: IC50 of inhibition effect on VEGFR2 kinase activity. On the procedure: The inhibition effect of VEGFR2 kinase activity in vitro was determined by the following method.
The inhibition effect of the compounds of the present invention on VEGFR2 kinase activity was determined by the following experimental method:
After reaction at 25° C. for 2 hours, 5 μL of detection reagent was added to each well. […] The IC50 values of the compounds for enzyme inhibition were calculated using Graphpad prism software based on each concentration of the compound and the corresponding signal value thereof.

In assay [2] the test system is Smad signaling pathway of TGFβRI. Description: Inhibition of Smad signaling pathway of TGFβRI (3TP-lux luciferase reporter in HepG2 cell). In kind it is cell-based. The settings on record: Homo sapiens; HepG2 cell, 3TP-lux plasmid, 18 hours; read-out: IC50 on the inhibition of Smad signaling pathway of TGFβRI.

The structures appear in SMILES notation. pIC50: −log10 of the molar value.

Chain of p38α kinase (Q16539 whole entry): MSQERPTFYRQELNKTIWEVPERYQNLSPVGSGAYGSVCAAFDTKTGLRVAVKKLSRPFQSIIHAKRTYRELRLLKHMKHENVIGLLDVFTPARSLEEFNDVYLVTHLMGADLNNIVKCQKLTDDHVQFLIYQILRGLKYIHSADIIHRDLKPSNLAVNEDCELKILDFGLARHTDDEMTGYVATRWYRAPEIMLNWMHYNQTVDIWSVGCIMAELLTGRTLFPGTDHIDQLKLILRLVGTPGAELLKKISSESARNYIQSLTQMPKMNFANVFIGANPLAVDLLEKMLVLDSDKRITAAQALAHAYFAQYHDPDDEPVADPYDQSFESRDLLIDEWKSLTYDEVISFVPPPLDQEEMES
Chain of recombinant human VEGFR2 enzyme (P35968 20-1356): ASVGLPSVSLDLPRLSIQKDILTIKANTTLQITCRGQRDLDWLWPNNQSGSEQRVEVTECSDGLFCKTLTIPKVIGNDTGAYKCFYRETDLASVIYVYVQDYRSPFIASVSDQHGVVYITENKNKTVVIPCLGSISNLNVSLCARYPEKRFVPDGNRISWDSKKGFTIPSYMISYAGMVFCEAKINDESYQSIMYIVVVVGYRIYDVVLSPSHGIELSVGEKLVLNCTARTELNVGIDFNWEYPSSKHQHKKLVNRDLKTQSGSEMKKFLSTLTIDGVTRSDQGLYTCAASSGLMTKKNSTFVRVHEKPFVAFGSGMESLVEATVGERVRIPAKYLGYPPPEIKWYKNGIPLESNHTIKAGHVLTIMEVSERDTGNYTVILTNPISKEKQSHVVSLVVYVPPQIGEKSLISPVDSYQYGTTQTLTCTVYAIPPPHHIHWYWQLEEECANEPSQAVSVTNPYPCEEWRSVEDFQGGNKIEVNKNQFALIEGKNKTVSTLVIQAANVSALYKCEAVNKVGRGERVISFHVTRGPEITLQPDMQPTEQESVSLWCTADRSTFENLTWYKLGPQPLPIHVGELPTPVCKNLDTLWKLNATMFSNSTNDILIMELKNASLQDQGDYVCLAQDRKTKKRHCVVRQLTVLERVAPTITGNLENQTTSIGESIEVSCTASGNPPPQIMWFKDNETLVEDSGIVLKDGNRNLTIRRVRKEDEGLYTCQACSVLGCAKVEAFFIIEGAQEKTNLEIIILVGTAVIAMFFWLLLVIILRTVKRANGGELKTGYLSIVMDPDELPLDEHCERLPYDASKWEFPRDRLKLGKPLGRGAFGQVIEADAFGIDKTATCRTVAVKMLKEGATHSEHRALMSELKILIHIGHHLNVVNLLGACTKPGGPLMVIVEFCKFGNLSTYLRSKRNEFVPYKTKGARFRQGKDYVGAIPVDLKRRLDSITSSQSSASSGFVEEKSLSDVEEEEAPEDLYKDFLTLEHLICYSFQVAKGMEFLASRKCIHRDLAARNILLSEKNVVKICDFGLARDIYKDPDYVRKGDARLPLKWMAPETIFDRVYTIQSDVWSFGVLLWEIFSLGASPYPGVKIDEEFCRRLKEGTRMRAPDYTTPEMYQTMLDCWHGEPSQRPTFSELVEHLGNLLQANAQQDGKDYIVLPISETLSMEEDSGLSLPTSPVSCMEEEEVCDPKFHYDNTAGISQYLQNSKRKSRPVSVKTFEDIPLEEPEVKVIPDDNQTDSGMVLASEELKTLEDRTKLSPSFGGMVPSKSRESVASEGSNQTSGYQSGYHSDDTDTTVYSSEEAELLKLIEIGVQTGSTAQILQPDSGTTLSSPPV
Chain of TGFβRI kinase ALK5 (P36897 34-503): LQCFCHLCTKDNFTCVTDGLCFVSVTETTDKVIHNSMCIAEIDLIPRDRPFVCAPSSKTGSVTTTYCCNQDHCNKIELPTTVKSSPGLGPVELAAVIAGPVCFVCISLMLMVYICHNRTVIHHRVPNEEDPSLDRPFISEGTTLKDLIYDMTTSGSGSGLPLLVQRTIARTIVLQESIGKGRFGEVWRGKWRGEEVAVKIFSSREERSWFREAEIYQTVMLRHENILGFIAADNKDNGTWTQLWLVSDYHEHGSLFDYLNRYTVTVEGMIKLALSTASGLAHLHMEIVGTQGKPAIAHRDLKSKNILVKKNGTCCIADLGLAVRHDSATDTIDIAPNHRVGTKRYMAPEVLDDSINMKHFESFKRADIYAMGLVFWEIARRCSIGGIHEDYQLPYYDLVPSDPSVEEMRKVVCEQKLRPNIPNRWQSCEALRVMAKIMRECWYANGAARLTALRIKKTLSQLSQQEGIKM

For the compound `Cn1cc(-c2cc(-c3c(-c4ccc(F)cn4)nc4n3[C@H]3CC[C@@H]4C3)ccn2)cn1` [Example 40-1, (5S,8R)-2-(5-Fluoropyridin-2-yl)-3-(2-(1-methyl-1H-pyrazol-4-yl)pyridin-4-yl)-5,6,7,8-tetrahydro-5,8-methanoimidazo[1,2-a]pyridine], the negative-log IC50 (pIC50) at p38α kinase was 5.87; at TGFβRI kinase ALK5, 8.00; with NIH3T3 cell it was 7.38; in assay [1] it was 5.68; in assay [2] it was 7.74.

Usually pIC50 stands for the negative decadic logarithm of the IC50, by convention in mol/L.
